Laboratory results reported in patent publication US20150045387A1, “Bi-Aromatic And Tri-Aromatic Compounds As NADPH Oxidase 2 (Nox2) Inhibitors” (The University of Surrey, priority 2011, published 2015).

Key:
[1] = system: microvascular endothelial cells (SVEC4-10); experiment: basal and angiotensin II induced O2.- production, lucigenin-chemiluminescence; type: cell-based, mouse; conditions: LMH001 5 μM, 24 h in culture, cell homogenates, NADPH-dependent
Procedure: FIG. 10 is a graph showing the effects of LMH001 in culture on basal and angiotensin II induced O2.^− production by microvascular endothelial cells (SVEC4-10). SVEC4-10 cells were cultured in medium alone (Basal) or in the presence of Angiotensin II (AngII, 200 nM) with or without LMH001 (5 μM) for 24 h. Cells were then harvested and cell homogenates were used for the measurement of NADPH-dependent O2.^− production by lucigenin-chemiluminescence. *P<0.05 (n=3 experiments). […]
O2^− production by different cell types was measured using lucigenin (5 μM)-chemiluminescence. A microplate luminometer (LumiStar, BMG) was used, which allows the examination of 96 samples at the same time with kinetic reading facilities. […] Dark-adapted lucigenin (5 μM) was added into the well through an auto-dispenser located in the dark chamber just before reading. The light emission was recorded over a 60 minute period and expressed as arbitrary MLU measured by the illuminometer. Each experiment was performed in triplicate and the mean of 3 blank readings was subtracted from each corrected value for each reading. […]
O2^− production was also studied using total cell homogenate (for the endothelial cells and the fibroblasts). […] Soluble protein concentration was determined using a kit from Bio-Rad Laboratories Ltd. (Hertfordshire, U.K.). […]

HepG2 cells = experiment: normal cell proliferation, MTS assay, HepG2; type: cell-based, human; conditions: HepG2, LMH001 up to 10 μM, 24 h
Procedure: (§1) A) SVEC4-10 cells and HepG2 cells were cultured in the presence or absence of LHM001 (0-10 μM) for 24 h and tested for cell proliferation using a MTS assay kit. B) HL-60 cells were cultured in the presence or absence of LMH001 (0-10 μM), and cell proliferation was examined at 6, 12 and 24 h of culture.
HepG2 is a human hepatocytic cell line (ATCC No. HB-8065) that was originally derived from liver tissue with a well differentiated hepatocellular carcinoma. HepG2 cells have been proven to be a suitable in vitro model system for the study of human hepatocytes, and the study of liver metabolism and toxicity. HepG2 cells were grown in DMEM, containing 10% (v/v) heat inactivated foetal calf serum, 100 U/mL penicillin and […] streptomycin, in a humidified atmosphere at 37° C. with 5% CO2.
(§2) The ex vivo proliferative capabilities of isolated BMSC or cultured cells were analyzed using the MTS proliferation assay. […] After 24 hours in culture medium containing LMH001 (0-10 μM), proliferation was assessed using the MTS (CellTiter 96 AQ; Promega, Madison, USA) assay according to the manufacturer's protocol. The absorbance at 490 nm was read using an ELISA plate reader (Perkin elmer), and the proliferation index calculated relative to the controls. The mean of 3 blank readings was subtracted from each corrected value.

HL-60 cells = experiment: normal cell proliferation, MTS assay, HL-60; type: cell-based, human; conditions: HL-60, LMH001 up to 10 μM, 6, 12 and 24 h of culture
Procedure: as §1
HL-60 is a human promyelocytic leukaemia cell line. The HL60 cells were grown in RPMI 1640 medium; containing 10% (v/v) heat inactivated foetal calf serum, 100 U/mL penicillin and […] streptomycin, in a humidified atmosphere at 37° C. with 5% CO2. HL60 cells were differentiated to the human neutrophils by culturing the cells in the culture medium in the presence of 1.25% v/v DMSO for 6 days before being used for the experiments.
as §2

For O=C(OCc1cccc(O)c1O)c1ccc(O)c(CO)c1 [LMH001, (2,3,-dihydroxyphenyl)methyl 4-hydroxy-3-(hydroxymethyl)benzoate], the “AngII-induced endothelial O2.- production” value ([1]; Angiotensin II 200 nM) was “completely inhibited”, the “basal cell O2.- production” value ([1]; medium alone) was “no effect” and the “normal cell proliferation under physiological condition” value (HepG2 cells) was “no significant effect”. The “normal cell proliferation under physiological condition” value (HL-60 cells) was “no significant effect”.
